From PMC9693259, “Synthesis, Self-Assembly in Crystalline Phase and Anti-Tumor Activity of 2-(2-/4-Hydroxybenzylidene)thiazolo[3,2-a]pyrimidines” (Molecules, 2022)
Where two headings read alike, the source gives them in different places.

Columns and labels:
[1] = tested on: HuTu 80 human duodenal adenocarcinoma; assay: MTT cytotoxicity test, HuTu 80; type: cell-based; settings: triplicate
Protocol: (§1) Formazan crystals were added to 100 µL of DMSO. […] The experiments for all compounds were repeated three times.

[2] = tested on: PC3 prostate adenocarcinoma cell line; assay: MTT cytotoxicity test, PC3; type: cell-based; settings: mean ± SD, triplicate
Protocol: as §1

[3] = tested on: MCF-7 (human mammary duct adenocarcinoma cell line); assay: MTT cytotoxicity test, MCF-7; type: cell-based; settings: triplicate
Protocol: as §1

[4] = tested on: M-HeLa clone 11 (epithelioid carcinoma of the cervix, subline HeLa, clone M-HeLa); assay: MTT cytotoxicity test, M-HeLa; type: cell-based; settings: mean ± SD, triplicate
Protocol: as §1

[5] = MTT cytotoxicity test, normal Chang liver cells; settings: human
Description: (§2) For the experiments, tumor cell cultures of M-HeLa clone 11 (epithelioid carcinoma of the cervix, subline HeLa., clone M-HeLa), HuTu 80, human duodenal adenocarcinoma, MCF7—human breast adenocarcinoma (pleural fluid) collected from Institute of Cytology, Russian Academy of Sciences (St. Petersburg, Russia); PC3—prostate adenocarcinoma cell line collected from ATCC (American Type Cell Collection, Manassas, VA, USA; CRL 1435; human liver cells (Chang liver) and the Research Institute of Virology of the Russian Academy of Medical Sciences (Moscow, Russia) were used for cytotoxicity analysis.
(§3) The cytotoxic effect on cells was determined using the colorimetric method of cell proliferation—the MTT test. NADP-H-dependent cellular oxidoreductase enzymes can, under certain conditions, reflect the number of viable cells. These enzymes are able to reduce the tetrazolium dye (MTT)—3-(4,5-dimethylthiazol-2-yl)-2,5-diphenyl-tetrazolium bromide to insoluble blue-violet formazan, which crystallizes inside the cell. The amount of formazan formed is proportional to the number of cells with active metabolism. Cells were seeded on a 96-well Nunc plate at a concentration of 5 × 10^3 cells per well in a volume of 100 μL of medium and cultured in a CO2 incubator at 37 °C until a monolayer was formed. […] After 48 h of incubation of the cells with the tested compounds, the nutrient medium was removed from the plates and 100 µL of the nutrient medium without serum with MTT at a concentration of 0.5 mg/mL was added and incubated for 4 h at 37 °C. Formazan crystals were added to 100 µL of DMSO. Optical density was recorded at 540 nm on an Invitrologic microplate reader (Novosibirsk, Russia). The experiments for all compounds were repeated three times.
(§4) Statistical analysis was performed using the Mann–Whitney test (p < 0.05). Tabular and graphical data contain the averages and standard error.

[6] = tested on: Chang liver (HeLa derivative) human liver cells; assay: MTT cytotoxicity test, normal Chang liver cells; settings: 48 h, read-out: IC50 Chang Liver (HeLa), normal cell line
Description: as §2, §3, §4

[7] = tested on: Chk1, Chk2, H2AX, MDM2, p53, p21, ATR in M-HeLa cells; assay: Multiplex analysis of DNA damage/genotoxicity markers (MILLIPLEX MAP 7-plex, Luminex); type: cell-based; settings: IC50/2 and IC50, 24 h
Description: Classical methods of assessing genotoxicity reveal mutations associated with increased or loss of function, but are not informative enough in studying the molecular mechanisms of DNA damage. The MILLIPLEX® MAP 7-plex DNA Damage/Genotoxicity Magnetic Bead kit allows to detect the expression and phosphorylation of a number of proteins involved in DNA damage, providing a faster and more accurate assessment of the state of the cell after exposure to genotoxic compounds. The 7-plex DNA Damage/Genotoxicity Magnetic Bead Kit is used to detect changes in phosphorylated Chk1 (Ser345), Chk2 (Thr68), H2AX (Ser139) and p53 (Ser15), as well as total protein levels of ATR, MDM2, and p21 in cellular lysates using the Luminex® system. […] The obtained results characterize the effect of the leading compound 7 on the DNA of M-HeLa cells at concentrations of IC50/2 and IC50. […] The fluorescence intensity of OTR markers also increases relative to the reference sample. […]
The studies were carried out according to the standard protocol. […] A total of 20 μg of total protein of each lysate diluted in MILLIPLEX® MAP Assay Buffer 2 was analyzed according to the analysis protocol (the lysate was incubated at 4 °C overnight). The mean fluorescence intensity (MFI) was detected using Luminex® system, MERCK, Kenilworth, NJ, USA.

[8] = set-up: method as in doi:10.5935/0103-5053.20160038; settings: due to optimal hydrophilicity/lipophilicity; cited from earlier work
[9] = tested on: MCF-7 breast cancer cell line; set-up: method as in PMID 25096298; settings: cited from earlier work
[10] = tested on: anti-apoptotic Bcl protein; set-up: method as in PMID 20405848; settings: cited from earlier work
[11] = Homo sapiens, HuTu80, 48 h, mean ± SD, read-out: IC50 HuTu 80
[12] = Homo sapiens, HuTu80, mean ± SD, lead compounds, read-out: IC50 HuTu 80 (Table 2)
[13] = lead compounds, read-out: IC50 PC3 (Table 2)
[14] = Homo sapiens, MCF7, 48 h, mean ± SD, read-out: IC50 MCF-7
[15] = Homo sapiens, MCF7, mean ± SD, lead compounds, read-out: IC50 MCF-7 (Table 2)
[16] = Homo sapiens, M-HeLa, 48 h, read-out: IC50 M-HeLa
[17] = Homo sapiens, M-HeLa, lead compounds, read-out: IC50 M-HeLa (Table 2)

| Molecule | IC50 [1, 11] | IC50 [1, 12] | IC50 ([2]; 48 h, read-out: IC50 PC3) | IC50 [2, 13] | IC50 [3, 14] | IC50 [3, 15] | IC50 [4, 16] | IC50 [4, 17] | melting point | IC50 at 48 h [5] | IC50 ([6]; Homo sapiens, HeLa) | other results |
| --- | --- | --- | --- | --- | --- | --- | --- | --- | --- | --- | --- | --- |
| CCOC(=O)C1=C(C)N=c2s/c(=C\c3ccccc3O)c(=O)n2C1c1ccc(Br)cc1 (stereo not drawn) [Compound 12, Ethyl (Z)-5-(4-bromophenyl)-2-(2-hydroxybenzylidene)-7-methyl-3-oxo-2,3-dihydro-5H-thiazolo[3,2-a]pyrimidine-6-carboxylate] | 23.7 ± 1.8 µM | 23.7 ± 1.8 µM | 28.1 ± 2.2 µM | 28.1 ± 2.2 µM | 22.3 ± 1.4 µM | 52.7 ± 4.2 µM | 18.8 ± 1.5 µM | 18.8 ± 1.5 µM | 201 to 203 °C | 78.2 ± 6.2 µM | 78.2 ± 6.2 µM |  |
| CCOC(=O)C1=C(C)N=c2s/c(=C\c3ccccc3O)c(=O)n2C1c1ccccc1 (stereo not drawn) [Compound 7, ethyl (Z)-2-(2-hydroxybenzylidene)-7-methyl-3-oxo-5-phenyl-2,3-dihydro-5H-thiazolo[3,2-a]pyrimidine-6-carboxylate] | 10.2 ± 0.8 µM | 10 ± 0.8 µM | 77.6 ± 6.7 µM | 77.6 ± 6.7 µM | 43.7 ± 3.5 µM | 43.7 ± 3.5 µM | 11.9 ± 0.9 µM | 11.9 ± 0.9 µM |  | 75 ± 5.7 µM | 75 ± 5.7 µM | average fluorescence intensity of the markers Chk1, Chk2, H2AX, MDM2, p53, and p21 ([7]; compared to untreated control): significantly increase; fluorescence intensity of OTR markers ([7]; relative to the reference sample): increases |
| CNC(=O)c1cc(Oc2ccc(NC(=O)Nc3ccc(Cl)c(C(F)(F)F)c3)cc2)ccn1 [Sorafenib, reference compound] | 13 ± 1.2 µM | 13 ± 1.2 µM | 12.7 ± 1.1 µM | 27.5 ± 2.2 µM | 27.5 ± 2.2 µM | 27.5 ± 2.2 µM | 25 ± 1.8 µM | 25 ± 1.8 µM |  | 21.7 ± 1.7 µM | 21.7 ± 1.7 µM |  |
| CCOC(=O)C1=C(C)N=c2s/c(=C\c3ccc(O)cc3)c(=O)n2C1c1ccccc1 (stereo not drawn) [Compound 13, ethyl (Z)-2-(4-hydroxybenzylidene)-7-methyl-3-oxo-5-phenyl-2,3-dihydro-5H-thiazolo[3,2-a]pyrimidine-6-carboxylate] | 43.3 ± 3.5 µM |  | 54 ± 4.3 µM |  | > 100 µM |  | 70 ± 5.5 µM |  |  |  | 86.1 ± 6.8 µM |  |
| CCOC(=O)C1=C(C)N=c2s/c(=C\c3ccc(O)cc3)c(=O)n2C1c1ccc(Br)cc1 (stereo not drawn) [Compound 14, Ethyl (Z)-5-(4-bromophenyl)-2-(4-hydroxybenzylidene)-7-methyl-3-oxo-2,3-dihydro-5H-thiazolo[3,2-a]pyrimidine-6-carboxylate] | 32.1 ± 2.5 µM |  | 49.3 ± 3.9 µM |  | 53.3 ± 4.2 µM |  | 31 ± 2.4 µM |  | 207 to 209 °C |  | 53.2 ± 4.2 µM |  |
| CCOC(=O)C1=C(C)N=c2s/c(=C\c3ccc(O)cc3)c(=O)n2C1c1cccc([N+](=O)[O-])c1 (stereo not drawn) [Compound 15, Ethyl (Z)-2-(4-hydroxybenzylidene)-7-methyl-5-(3-nitrophenyl)-3-oxo-2,3-dihydro-5H-thiazolo[3,2-a]pyrimidine-6-carboxylate] | 74.5 ± 5.7 µM |  | 70 ± 5.5 µM |  | > 100 µM |  | > 100 µM |  | 190 to 192 °C |  | 91.4 ± 7.2 µM |  |
| ethyl (Z)-2-(2-hydroxybenzylidene)-5-(4-methoxyphenyl)-7-methyl-3-oxo-2,3-dihydro-5H-thiazolo[3,2-a]pyrimidine-6-carboxylate [Compound 8] |  |  | 93.7 ± 8.5 µM |  |  |  |  |  |  |  |  | IC50 ([1]; 48 h, mean ± SD, read-out: IC50 HuTu 80): 85.9 ± 8 µM; IC50 ([3]; 48 h, mean ± SD, read-out: IC50 MCF-7): 93.3 ± 8.2 µM; IC50 ([4]; 48 h, read-out: IC50 M-HeLa): 90 ± 8.3 µM; IC50 ([6]; MTT, mean ± SD, triplicate): 56.4 ± 4.5 µM |
| CCOC(=O)C1=C(C)N=c2s/c(=C\c3ccccc3O)c(=O)n2C1c1cccc([N+](=O)[O-])c1 (stereo not drawn) [Compound 10, Ethyl (Z)-2-(2-hydroxybenzylidene)-7-methyl-5-(3-nitrophenyl)-3-oxo-2,3-dihydro-5H-thiazolo[3,2-a]pyrimidine-6-carboxylate] | 60 ± 4.7 µM | 14.6 ± 0.3 µM | 56 ± 4.4 µM | 56 ± 4.4 µM | 56 ± 4.5 µM | 56 ± 4.5 µM | 55 ± 4.4 µM | 55 ± 4.4 µM | 187 to 189 °C | 88 ± 7 µM | 88 ± 7 µM |  |
| COc1ccc2c(c1)CCC1=C2N=c2s/c(=C\c3c[nH]c4ccc(Br)cc34)c(=O)n2C1c1ccc(Cl)cc1 (stereo not drawn) [Compound 1] |  |  |  |  |  |  |  |  |  |  |  | absorption ability in the gastrointestinal tract [8]: high absorption ability; cytotoxicity efficiency relative to doxorubicin [9]: 1.15 times |
| COc1ccc(C2C3=C(N=c4s/c(=C\c5c[nH]c6ccc(Br)cc56)c(=O)n42)c2ccc(OC)cc2CC3)cc1 (stereo not drawn) [Compound 3] |  |  |  |  |  |  |  |  |  |  |  | IC50 [10]: 3.4 µM |
| COc1ccccc1C1C(C(=O)c2ccccc2)=C(C)N=c2s/c(=C\c3ccccc3O)c(=O)n21 (stereo not drawn) [Compound 11, (Z)-6-benzoyl-2-(2-hydroxybenzylidene)-5-(2-methoxyphenyl)-7-methyl-5H-thiazolo[3,2-a]pyrimidin-3(2H)-one] | 39 ± 3.1 µM |  | 54 ± 4.3 µM |  | 81 ± 7.4 µM |  | 56.4 ± 4.5 µM |  | 167 to 169 °C |  | 64 ± 5.1 µM |  |
